Experimental data from ChEMBL document CHEMBL2016508, “Synthesis and biological activity of bi/tricyclic azasugars fused thiazolidin-4-one and thiazinan-4-one by microwave-assisted tandem Staudinger/aza-Wittig/cyclization” (2012).
Active and inactive are the calls of the source. The calls are words filed in the database; no cut-off is given here.

Key:
[1] = system: T-cell; assay: Effect on proliferation of Balb/C mouse T cells at 50 uM after 72 hrs by MTT assay; type: functional, cell-based
[2] = system: Bacillaceae; assay: Inhibition of Bacillaceae alpha-amylase using starch as substrate at 100 uM preincubated for 10 mins prior substrate addition measured after 10 mins by UV-Vis spectrophotometry
[3] = system: T-cell; assay: Effect on proliferation of Balb/C mouse T cells at 5 uM after 72 hrs by MTT assay; type: functional, cell-based
[4] = system: Prunus dulcis; assay: Inhibition of almonds beta-glucosidase using D-(-)salicin as substrate at 100 uM preincubated for 10 mins prior substrate addition measured after 10 mins by UV-Vis spectrophotometry
[5] = system: YAC-1; assay: Immunopotentiating activity in Balb/C mouse NK cells assessed as induction of killing activity against YAC-1 cells at 5 uM after 4 hrs by MTT assay; type: functional
[6] = system: Saccharomyces cerevisiae; assay: Inhibition of yeast alpha-glucosidase using PNPG as substrate at 100 uM preincubated for 10 mins prior substrate addition measured after 10 mins by UV-Vis spectrophotometry
[7] = system: YAC-1; assay: Immunopotentiating activity in Balb/C mouse NK cells assessed as induction of killing activity against YAC-1 cells at 50 uM after 4 hrs by MTT assay; type: functional

inhibition [2] | inhibition [4] | inhibition [6] | SMILES | Activity [1] | Activity [3] | Activity [5] | Activity [7]
inactive | inactive | inactive | O=C1c2ccccc2S[C@H]2[C@@H](O)[C@@H](O)[C@H](O)CN12 | inactive | inactive | 46% | 73%
inactive | 19% | inactive | O=C1CS[C@H]2[C@@H](O)[C@@H](O)[C@H](O)CN12 | inactive | inactive | 72% | 93%
inactive | 23% | inactive | O=C1CS[C@H]2[C@H](O)[C@H](O)[C@H](O)CN12 | inactive | inactive | inactive | inactive
inactive | inactive | inactive | O=C1c2cccnc2S[C@H]2[C@H](O)[C@H](O)[C@H](O)CN12 | inactive | inactive | inactive | inactive
inactive | 18% | inactive | O=C1CCS[C@H]2[C@H](O)[C@H](O)[C@H](O)CN12 | inactive | inactive | inactive | inactive
inactive | inactive | inactive | O=C1c2ccccc2S[C@@H]2[C@H](O)[C@H](O)[C@H](O)CN12 | inactive | inactive | inactive | inactive
inactive | inactive | inactive | O=C1c2ccccc2S[C@@H]2[C@@H](O)[C@@H](O)[C@H](O)CN12 | inactive | inactive | inactive | inactive
inactive | inactive | inactive | O=C1CS[C@@H]2[C@@H](O)[C@@H](O)[C@H](O)CN12 | inactive | inactive | inactive | inactive
inactive | inactive | inactive | O=C1CCS[C@H]2[C@@H](O)[C@@H](O)[C@H](O)CN12 | inactive | inactive | 69% | 45%
inactive | inactive | inactive | O=C1c2ccccc2S[C@H]2[C@H](O)[C@H](O)[C@H](O)CN12 | inactive | inactive | inactive | inactive
inactive | 35% | inactive | O=C1c2cccnc2S[C@H]2[C@@H](O)[C@@H](O)[C@H](O)CN12 | inactive | inactive | 67% | 97%
inactive | inactive | inactive | O=C1CS[C@@H]2[C@H](O)[C@H](O)[C@H](O)CN12 | inactive | inactive | 70% | 87%
inactive | inactive | inactive | O=C1CCS[C@@H]2[C@H](O)[C@H](O)[C@H](O)CN12 | inactive | inactive | inactive | inactive
inactive | inactive | inactive | O=C1CCS[C@@H]2[C@@H](O)[C@@H](O)[C@H](O)CN12 | inactive | inactive | inactive | inactive
inactive | inactive | inactive | O=C1c2cccnc2S[C@@H]2[C@H](O)[C@H](O)[C@H](O)CN12 | inactive | inactive | 45% | 71%
inactive | 19% | inactive | O=C1c2cccnc2S[C@@H]2[C@@H](O)[C@@H](O)[C@H](O)CN12 | inactive | inactive | 55% | 81%
